Source: ChEMBL document CHEMBL1201862, “PubChem BioAssay data set” (2004)
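96-well plates; 48 h exposure; 5 concentrations. Endpoints by linear interpolation between flanking doses. Not reached: highest tested concentration assigned. The concentration for 50% growth inhibition is given as GI50.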 The source made the active and inactive calls. Rule as the data show it: active = GI50 up to about 1.1 µM and inactive = higher.

Key:
Experiment in all cases: NCI anticancer screen, dose series, 48 h
[1] = system: A549
[2] = system: UACC-62
[3] = system: COLO 205
[4] = system: OVCAR-8
[5] = system: SF-539
[6] = system: Malme-3M
[7] = system: K562
[8] = system: NCI-H522
[9] = system: HOP-62
[10] = system: LOX IMVI
[11] = system: HCT-15
[12] = system: OVCAR-5
[13] = system: MOLT-4
[14] = system: HOP-92
[15] = system: HCC 2998
[16] = system: TK-10
[17] = system: MDA-N
[18] = system: KM12
[19] = system: OVCAR-4
[20] = system: NCI-H226

Structure (SMILES)	GI50 [1]	GI50 [2]	GI50 [3]	GI50 [4]	GI50 [5]	GI50 [6]	GI50 [7]	GI50 [8]	GI50 [9]	GI50 [10]	GI50 [11] [µM]	GI50 [12]	GI50 [13]	GI50 [14]	GI50 [15]	GI50 [16]	GI50 [17]	GI50 [18]	GI50 [19]	GI50 [20]
O=C(O)c1c2c(c(O)c3c1CN(C1CCCCC1)CO3)OCN(C1CCCCC1)C2	> 100 µM (inactive)	> 100 µM (inactive)	> 100 µM (inactive)	45.1 µM (inactive)	37 µM (inactive)	> 100 µM (inactive)	31.3 µM (inactive)	29.1 µM (inactive)	83.2 µM (inactive)	21.3 µM (inactive)	> 100	> 100 µM (inactive)	18.5 µM (inactive)	> 100 µM (inactive)	21.6 µM (inactive)	> 100 µM (inactive)	> 100 µM (inactive)	> 100 µM (inactive)	> 100 µM (inactive)	–
O=c1cc(NNCc2ccccc2)[nH]c(=O)[nH]1	> 100 µM (inactive)	–	> 100 µM (inactive)	> 100 µM (inactive)	> 100 µM (inactive)	80.5 µM (inactive)	> 100 µM (inactive)	–	> 100 µM (inactive)	> 100 µM (inactive)	> 100	> 100 µM (inactive)	69.2 µM (inactive)	4.68 µM (inactive)	> 100 µM (inactive)	> 100 µM (inactive)	> 100 µM (inactive)	> 100 µM (inactive)	> 100 µM (inactive)	> 100 µM (inactive)
O=C(c1cc(Cl)cc(Cl)c1)N(C(=S)OC12CC3CC(CC(C3)C1)C2)c1ccccc1	42.7 µM (inactive)	32.6 µM (inactive)	18.6 µM (inactive)	41.7 µM (inactive)	40 µM (inactive)	49.7 µM (inactive)	–	16 µM (inactive)	42.7 µM (inactive)	–	34.6	46.3 µM (inactive)	–	29 µM (inactive)	33.8 µM (inactive)	53.3 µM (inactive)	31.8 µM (inactive)	40.3 µM (inactive)	46.8 µM (inactive)	35.5 µM (inactive)
Cc1n[nH]c(=O)n1/N=C/c1ccc(Cl)cc1	61.2 µM (inactive)	56.9 µM (inactive)	43.3 µM (inactive)	83.6 µM (inactive)	78.2 µM (inactive)	–	> 100 µM (inactive)	21.7 µM (inactive)	32.5 µM (inactive)	–	> 100	> 100 µM (inactive)	54.3 µM (inactive)	32.9 µM (inactive)	> 100 µM (inactive)	–	> 100 µM (inactive)	> 100 µM (inactive)	98.4 µM (inactive)	–
CNC(=S)/C(C#N)=C(\N)N1CCN(C)CC1	> 100 µM (inactive)	> 100 µM (inactive)	> 100 µM (inactive)	> 100 µM (inactive)	> 100 µM (inactive)	> 100 µM (inactive)	> 100 µM (inactive)	> 100 µM (inactive)	> 100 µM (inactive)	> 100 µM (inactive)	> 100	> 100 µM (inactive)	> 100 µM (inactive)	> 100 µM (inactive)	> 100 µM (inactive)	> 100 µM (inactive)	> 100 µM (inactive)	> 100 µM (inactive)	–	> 100 µM (inactive)
C[C@H]1CCCCC[C@@H]2CC(=O)CC2C(=O)CCC(=O)O1 (stereo partly drawn)	> 100 µM (inactive)	6.68 µM (inactive)	> 100 µM (inactive)	> 100 µM (inactive)	> 100 µM (inactive)	> 100 µM (inactive)	> 100 µM (inactive)	> 100 µM (inactive)	> 100 µM (inactive)	–	> 100	> 100 µM (inactive)	> 100 µM (inactive)	> 100 µM (inactive)	> 100 µM (inactive)	> 100 µM (inactive)	> 100 µM (inactive)	> 100 µM (inactive)	> 100 µM (inactive)	16.7 µM (inactive)
